Experimental findings from BindingDB's records for doi:10.1016/j.bmcl.2008.08.095 (Sunesis Pharmaceuticals, 2008) are described below.

The target in the assay is Focal adhesion kinase 1 (Homo sapiens, UniProt Q05397).
Chain of Focal adhesion kinase 1 (Q05397 whole entry): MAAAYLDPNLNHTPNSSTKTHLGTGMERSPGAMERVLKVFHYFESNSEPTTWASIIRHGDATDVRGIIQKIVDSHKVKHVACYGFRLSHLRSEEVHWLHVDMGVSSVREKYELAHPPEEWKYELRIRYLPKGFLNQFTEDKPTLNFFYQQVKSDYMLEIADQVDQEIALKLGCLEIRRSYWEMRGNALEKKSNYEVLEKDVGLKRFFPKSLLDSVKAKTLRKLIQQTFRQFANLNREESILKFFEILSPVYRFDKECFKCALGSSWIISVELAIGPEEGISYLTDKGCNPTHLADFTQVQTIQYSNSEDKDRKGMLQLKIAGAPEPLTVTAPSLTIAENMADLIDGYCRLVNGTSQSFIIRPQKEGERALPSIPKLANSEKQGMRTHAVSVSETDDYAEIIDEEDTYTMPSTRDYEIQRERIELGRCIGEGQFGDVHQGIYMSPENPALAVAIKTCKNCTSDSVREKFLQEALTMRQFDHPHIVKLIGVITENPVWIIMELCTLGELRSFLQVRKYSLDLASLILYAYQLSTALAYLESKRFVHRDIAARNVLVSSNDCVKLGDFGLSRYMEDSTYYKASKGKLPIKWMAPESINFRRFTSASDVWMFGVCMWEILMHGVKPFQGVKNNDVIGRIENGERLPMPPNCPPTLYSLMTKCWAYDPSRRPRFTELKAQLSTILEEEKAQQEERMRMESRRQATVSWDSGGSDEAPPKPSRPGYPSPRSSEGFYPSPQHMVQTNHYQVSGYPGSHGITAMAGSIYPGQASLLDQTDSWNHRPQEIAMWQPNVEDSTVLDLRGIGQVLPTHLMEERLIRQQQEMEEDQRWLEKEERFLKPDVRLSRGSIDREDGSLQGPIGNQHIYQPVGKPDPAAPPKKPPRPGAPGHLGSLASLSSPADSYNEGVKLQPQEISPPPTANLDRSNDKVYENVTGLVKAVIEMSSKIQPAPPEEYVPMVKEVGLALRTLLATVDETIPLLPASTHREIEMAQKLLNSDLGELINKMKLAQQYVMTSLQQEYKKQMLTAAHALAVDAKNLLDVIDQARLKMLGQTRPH

Take `Cc1nn(-c2cc(Cl)cc(CCC(N)=O)c2)c2cc(N[C@@H](C)c3ccccc3)ncc12` [3-[3-chloro-5-(3-methyl-6-{[(1S)-1-phenylethyl]amino}-1H-pyrazolo[4,3-c]pyridin-1-yl)phenyl]propanamide]: the half-maximal inhibitory concentration (IC50) (commonly the concentration that gives 50% inhibition) was found to be 7.46 µM.

Take `CC(=O)Nc1ccccc1-c1cc(Cl)cc(-n2nc(C)c3cnc(N[C@@H](C)c4ccccc4)cc32)c1` [N-{2-[3-chloro-5-(3-methyl-6-{[(1S)-1-phenylethyl]amino}-1H-pyrazolo[4,3-c]pyridin-1-yl)phenyl]phenyl}acetamide]: the half-inhibitory concentration (IC50) was found to be 6.28 µM.
